According to US10131652B2, “Pyrimidinyloxy benzene derivatives as herbicides” (E. I. DU PONT DE NEMOURS AND COMPANY, priority 2014, dated 2018):

Tests used:
Type in all cases: in vivo
kochia (Kochia scoparia) = assay: Test B pre-/postemergence plant response
How it was run: (§1)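 Ratings reflect visual injury versus untreated controls, from 0 for no effect to 100 for complete control, assessed roughly 10 days after treatment. Formulation: non-phytotoxic solvent mix with surfactant; pre- and postemergence sprays on plants grown in loam soil and sand.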

[1] = system: ragweed (common ragweed, Ambrosia elatior); assay: Test B pre-/postemergence plant response
How it was run: as §1

[2] = system: Italian ryegrass (Lolium multiflorum); assay: Test B pre-/postemergence plant response
How it was run: as §1

[3] = system: blackgrass (Alopecurus myosuroides); assay: Test D pre-/postemergence plant response
How it was run: (§2)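 Preemergence: seeds in loam/sand blend treated with test chemicals in non-phytotoxic solvent with surfactant; postemergence: plants at 2–18 cm (1- to 4-leaf stage) in peat-based medium sprayed likewise. Greenhouse 13 to 15 days, then visual rating vs controls, 0 (no effect) to 100 (complete control).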

[4] = system: yellow nutsedge (Cyperus esculentus); assay: Test D pre-/postemergence plant response
How it was run: as §2

[5] = system: ragweed (common ragweed, Ambrosia elatior); assay: Test D pre-/postemergence plant response
How it was run: as §2

[6] = system: oilseed rape (Brassica napus); assay: Test D pre-/postemergence plant response
How it was run: as §2

[7] = system: giant foxtail (Setaria faberii); assay: Test D pre-/postemergence plant response
How it was run: as §2

[8] = system: pigweed (Amaranthus retroflexus); assay: Test D pre-/postemergence plant response
How it was run: as §2

corn (Zea mays) = assay: Test D pre-/postemergence plant response
How it was run: as §2

[9] = system: large (Lg) crabgrass (Digitaria sanguinalis); assay: Test D pre-/postemergence plant response
How it was run: as §2

[10] = system: galium (catchweed bedstraw, Galium aparine); assay: Test D pre-/postemergence plant response
How it was run: as §2

[11] = system: barnyardgrass (Echinochloa crus-galli); assay: Test D pre-/postemergence plant response
How it was run: as §2

[12] = system: Italian ryegrass (Lolium multiflorum); assay: Test D pre-/postemergence plant response
How it was run: as §2

[13] = 31 g ai/ha, Preemergence, 0 to 100 scale where 0 is no effect and 100 is complete control
[14] = 125 g ai/ha, postemergence, 0 to 100 scale, 0 no effect, 100 complete control
[15] = Postemergence, 31 g ai/ha, 0 to 100 scale (0 no effect, 100 complete control)
[16] = Preemergence, 125 g ai/ha, 0 to 100 scale (0 no effect, 100 complete control)
[17] = Postemergence, 16 g ai/ha, scale 0 to 100 (0 no effect, 100 complete control)
[18] = Postemergence, 31 g ai/ha, scale 0 to 100 (0 no effect, 100 complete control)
[19] = Postemergence, 62 g ai/ha, scale 0 to 100, 0 no effect, 100 complete control
[20] = Postemergence, 125 g ai/ha, scale 0 to 100, 0 no effect, 100 complete control
[21] = Preemergence, 8 g ai/ha, scale 0 to 100 (0 no effect, 100 complete control)
[22] = Preemergence, 16 g ai/ha, scale 0 to 100 (0 no effect, 100 complete control)
[23] = Preemergence, 31 g ai/ha, scale 0 to 100 (0 no effect, 100 complete control)
[24] = Preemergence, 62 g ai/ha, scale 0 to 100 (0 no effect, 100 complete control)

FC(F)(Cl)c1cc(-c2ccccc2Oc2ncc(Cl)cn2)no1 [Compound 143] was tested, and the “Plant response rating, Kochia” value (kochia (Kochia scoparia); [13]) was 30, the “Plant response rating, Kochia” value (kochia (Kochia scoparia); [14]) was 100 and the “Plant response rating, Kochia” value (kochia (Kochia scoparia); [15]) was 100. The “Kochia plant response rating” value (kochia (Kochia scoparia); [16]) was 90, the “Plant response rating, Ragweed” value [1, 13] was 0 and the “Plant response rating, Ragweed” value [1, 14] was 20. For the same compound, the “Plant response rating, Ragweed” value [1, 15] was 0, the “Ragweed plant response rating” value [1, 16] was 30 and the “Plant response rating, Ryegrass, Italian” value [2, 13] was 0. For the same compound, the “Plant response rating, Ryegrass, Italian” value [2, 14] was 50, the “Plant response rating, Ryegrass, Italian” value [2, 15] was 0 and the “Ryegrass, Italian plant response rating” value [2, 16] was 60. The “Blackgrass plant response rating” value [3, 17] was 10, the “Blackgrass plant response rating” value [3, 18] was 10 and the “Plant response rating, Blackgrass” value [3, 19] was 20. The “Plant response rating, Blackgrass” value [3, 20] was 30, the “Plant response rating, Blackgrass” value [3, 21] was 0 and the “Plant response rating, Blackgrass” value [3, 22] was 10. For the same compound, the “Plant response rating, Blackgrass” value [3, 23] was 15, the “Plant response rating, Blackgrass” value [3, 24] was 90 and the “Nutsedge, Yellow plant response rating” value [4, 18] was 5. For the same compound, the “Plant response rating, Nutsedge, Yellow” value [4, 19] was 5, the “Plant response rating, Nutsedge, Yellow” value [4, 20] was 5 and the “Plant response rating, Nutsedge, Yellow” value [4, 21] was 0. The “Plant response rating, Nutsedge, Yellow” value [4, 22] was 0, the “Plant response rating, Nutsedge, Yellow” value [4, 23] was 0 and the “Plant response rating, Nutsedge, Yellow” value [4, 24] was 5. For the same compound, the “Ragweed plant response rating” value [5, 18] was 5, the “Plant response rating, Ragweed” value [5, 19] was 10 and the “Plant response rating, Ragweed” value [5, 20] was 30. The “Plant response rating, Ragweed” value [5, 21] was 0, the “Plant response rating, Ragweed” value [5, 22] was 0 and the “Plant response rating, Ragweed” value [5, 23] was 30. For the same compound, the “Plant response rating, Ragweed” value [5, 24] was 40, the “Oilseed Rape plant response rating” value [6, 18] was 50 and the “Plant response rating, Oilseed Rape” value [6, 19] was 60. The “Plant response rating, Oilseed Rape” value [6, 20] was 65, the “Plant response rating, Oilseed Rape” value [6, 21] was 0 and the “Plant response rating, Oilseed Rape” value [6, 22] was 0. The “Plant response rating, Oilseed Rape” value [6, 23] was 85, the “Plant response rating, Oilseed Rape” value [6, 24] was 95 and the “Foxtail, Giant plant response rating” value [7, 17] was 5. The “Foxtail, Giant plant response rating” value [7, 18] was 10, the “Plant response rating, Foxtail, Giant” value [7, 19] was 10 and the “Plant response rating, Foxtail, Giant” value [7, 20] was 50. For the same compound, the “Plant response rating, Foxtail, Giant” value [7, 21] was 40, the “Plant response rating, Foxtail, Giant” value [7, 22] was 85 and the “Plant response rating, Foxtail, Giant” value [7, 23] was 100. For the same compound, the “Plant response rating, Foxtail, Giant” value [7, 24] was 100, the “Pigweed plant response rating” value [8, 18] was 90 and the “Plant response rating, Pigweed” value [8, 19] was 100. For the same compound, the “Plant response rating, Pigweed” value [8, 20] was 100, the “Plant response rating, Pigweed” value [8, 21] was 90 and the “Plant response rating, Pigweed” value [8, 22] was 100. The “Plant response rating, Pigweed” value [8, 23] was 100, the “Plant response rating, Pigweed” value [8, 24] was 100 and the “Corn plant response rating” value (corn (Zea mays); [17]) was 5. For the same compound, the “Corn plant response rating” value (corn (Zea mays); [18]) was 5, the “Plant response rating, Corn” value (corn (Zea mays); [19]) was 5 and the “Plant response rating, Corn” value (corn (Zea mays); [20]) was 10. The “Plant response rating, Corn” value (corn (Zea mays); [21]) was 0, the “Plant response rating, Corn” value (corn (Zea mays); [22]) was 0 and the “Plant response rating, Corn” value (corn (Zea mays); [23]) was 5. The “Plant response rating, Corn” value (corn (Zea mays); [24]) was 100, the “Crabgrass, Large plant response rating” value [9, 17] was 10 and the “Crabgrass, Large plant response rating” value [9, 18] was 10. For the same compound, the “Plant response rating, Crabgrass, Large” value [9, 19] was 15, the “Plant response rating, Crabgrass, Large” value [9, 20] was 35 and the “Plant response rating, Crabgrass, Large” value [9, 21] was 60. The “Plant response rating, Crabgrass, Large” value [9, 22] was 98, the “Plant response rating, Crabgrass, Large” value [9, 23] was 100 and the “Plant response rating, Crabgrass, Large” value [9, 24] was 100. The “Galium plant response rating” value [10, 18] was 70, the “Plant response rating, Galium” value [10, 19] was 70 and the “Plant response rating, Galium” value [10, 20] was 100. For the same compound, the “Plant response rating, Galium” value [10, 21] was 10, the “Plant response rating, Galium” value [10, 22] was 10 and the “Plant response rating, Galium” value [10, 23] was 80. The “Plant response rating, Galium” value [10, 24] was 80, the “Barnyardgrass plant response rating” value [11, 17] was 5 and the “Barnyardgrass plant response rating” value [11, 18] was 5. For the same compound, the “Plant response rating, Barnyardgrass” value [11, 19] was 10, the “Plant response rating, Barnyardgrass” value [11, 20] was 65 and the “Plant response rating, Barnyardgrass” value [11, 21] was 5. For the same compound, the “Plant response rating, Barnyardgrass” value [11, 22] was 20, the “Plant response rating, Barnyardgrass” value [11, 23] was 70 and the “Plant response rating, Barnyardgrass” value [11, 24] was 98. For the same compound, the “Ryegrass, Italian plant response rating” value [12, 18] was 0, the “Plant response rating, Ryegrass, Italian” value [12, 19] was 0 and the “Plant response rating, Ryegrass, Italian” value [12, 20] was 15. The “Plant response rating, Ryegrass, Italian” value [12, 21] was 0, the “Plant response rating, Ryegrass, Italian” value [12, 22] was 5 and the “Plant response rating, Ryegrass, Italian” value [12, 23] was 5. For the same compound, the “Plant response rating, Ryegrass, Italian” value [12, 24] was 70.
